The AC50 is the midpoint of the concentration-response curve, whichever way the signal moves.

Calls of active or inactive are those of the source.

The target in assay [1] is T1, Probable nicotinate-nucleotide adenylyltransferase (Staphylococcus aureus (strain N315), UniProt P65502). Type of assay: functional, Staphylococcus aureus subsp. aureus N315.
The target of assay [2] is T1, Probable nicotinate-nucleotide adenylyltransferase. Format: functional, Staphylococcus aureus subsp. aureus N315. The settings on record: read-out: IC50_Mean.
The target of assay [3] is T2, Tyrosine-protein phosphatase non-receptor type 22 (Homo sapiens, UniProt Q9Y2R2).
T2 sequence (Q9Y2R2 whole entry): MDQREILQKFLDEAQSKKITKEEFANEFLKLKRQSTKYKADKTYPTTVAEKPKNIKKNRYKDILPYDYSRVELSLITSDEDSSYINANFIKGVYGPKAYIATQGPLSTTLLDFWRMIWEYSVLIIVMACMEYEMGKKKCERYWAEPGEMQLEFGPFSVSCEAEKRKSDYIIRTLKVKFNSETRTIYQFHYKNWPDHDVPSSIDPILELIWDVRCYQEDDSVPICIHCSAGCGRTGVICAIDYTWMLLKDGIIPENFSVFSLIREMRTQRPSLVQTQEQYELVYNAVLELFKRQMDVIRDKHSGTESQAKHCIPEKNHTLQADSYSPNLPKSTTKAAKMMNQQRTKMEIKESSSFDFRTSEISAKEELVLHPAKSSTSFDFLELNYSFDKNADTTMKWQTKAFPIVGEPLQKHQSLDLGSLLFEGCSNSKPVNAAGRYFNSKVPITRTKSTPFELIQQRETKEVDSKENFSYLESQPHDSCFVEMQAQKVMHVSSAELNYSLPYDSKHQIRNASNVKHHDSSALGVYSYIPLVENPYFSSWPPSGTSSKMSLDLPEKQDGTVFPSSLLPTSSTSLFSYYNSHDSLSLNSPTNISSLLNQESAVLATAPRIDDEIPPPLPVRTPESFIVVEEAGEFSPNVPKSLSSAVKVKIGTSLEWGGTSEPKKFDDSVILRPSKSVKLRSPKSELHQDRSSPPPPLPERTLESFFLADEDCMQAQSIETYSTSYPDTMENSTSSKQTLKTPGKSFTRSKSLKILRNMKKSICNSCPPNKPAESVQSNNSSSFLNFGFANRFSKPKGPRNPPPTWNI
The experiment in a line: LYP phosphatase inhibition for selectivity, dose response, selectivity assay for LMPTP inhibitor project, biochemical, fluorescence, LYP catalytic domain (AID 652006). Format: functional. The settings on record: read-out: IC50_Mean.

Assay [4] addresses T3, Low molecular weight phosphotyrosine protein phosphatase (Homo sapiens, UniProt P24666).
T3 sequence (P24666 whole entry): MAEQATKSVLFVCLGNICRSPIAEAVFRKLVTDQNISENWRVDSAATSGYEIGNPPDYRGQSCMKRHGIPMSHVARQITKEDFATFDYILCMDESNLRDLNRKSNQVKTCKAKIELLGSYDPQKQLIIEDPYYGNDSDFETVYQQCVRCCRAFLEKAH
Format: functional. The settings on record: read-out: IC50_Mean.

The target in assay [5] is Dual specificity tyrosine-phosphorylation-regulated kinase 1A (Rattus norvegicus, UniProt Q63470). Type of assay: biochemical, Homo sapiens.
For assay [6], the target named is T3, Low molecular weight phosphotyrosine protein phosphatase. Format: functional. The settings on record: read-out: IC50_Mean. This is another data set of the same source.
The target of assay [7] is ADP-ribosylation factor GTPase-activating protein 1 (Rattus norvegicus, UniProt Q62848). The experiment in a line: Fluorescence polarization-based biochemical high throughput dose response screening assay to identify inhibitors of ADP-ribosylation factor GTPase activating protein 1 (ARFGAP1). Format: functional. A general note: Polarisation of emitted light reports the rotation of a fluorescent probe.
Sequence of ADP-ribosylation factor GTPase-activating protein 1 (Q62848 whole entry): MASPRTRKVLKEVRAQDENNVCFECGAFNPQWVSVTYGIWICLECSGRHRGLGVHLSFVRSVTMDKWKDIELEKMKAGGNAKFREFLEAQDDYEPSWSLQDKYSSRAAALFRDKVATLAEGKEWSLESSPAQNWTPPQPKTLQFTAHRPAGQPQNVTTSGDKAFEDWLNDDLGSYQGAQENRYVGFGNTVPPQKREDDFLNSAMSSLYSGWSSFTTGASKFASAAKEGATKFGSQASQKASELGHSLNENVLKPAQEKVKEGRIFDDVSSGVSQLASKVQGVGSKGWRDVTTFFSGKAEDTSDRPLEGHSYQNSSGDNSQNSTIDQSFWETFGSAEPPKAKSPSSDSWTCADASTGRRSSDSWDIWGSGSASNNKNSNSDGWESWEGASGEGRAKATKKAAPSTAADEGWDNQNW

Assay [8] addresses Arf-GAP with SH3 domain, ANK repeat and PH domain-containing protein 1 (Homo sapiens, UniProt Q9ULH1). Format: functional.
For the next assay, the target named is T4, Estrogen receptor (Homo sapiens, UniProt P03372).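 Note: potency for inhibiting coactivator peptide recruitment to the receptor.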
T4 sequence (P03372 whole entry): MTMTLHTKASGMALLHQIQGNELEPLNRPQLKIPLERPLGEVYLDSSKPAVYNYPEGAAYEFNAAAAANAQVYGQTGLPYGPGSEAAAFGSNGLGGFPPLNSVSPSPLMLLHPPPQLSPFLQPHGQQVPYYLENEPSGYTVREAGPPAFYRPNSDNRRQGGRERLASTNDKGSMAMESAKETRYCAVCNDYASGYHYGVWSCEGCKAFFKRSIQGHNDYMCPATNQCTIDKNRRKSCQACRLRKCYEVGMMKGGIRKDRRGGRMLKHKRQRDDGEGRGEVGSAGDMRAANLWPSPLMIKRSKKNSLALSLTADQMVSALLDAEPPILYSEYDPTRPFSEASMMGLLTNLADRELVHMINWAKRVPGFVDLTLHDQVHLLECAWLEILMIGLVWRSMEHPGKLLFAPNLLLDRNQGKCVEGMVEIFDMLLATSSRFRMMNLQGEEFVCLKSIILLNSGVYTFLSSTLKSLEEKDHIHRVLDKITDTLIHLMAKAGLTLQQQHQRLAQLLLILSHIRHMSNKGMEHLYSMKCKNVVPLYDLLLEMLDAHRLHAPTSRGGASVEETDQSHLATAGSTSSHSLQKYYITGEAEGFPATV

For assay [9], the target named is Photoreceptor-specific nuclear receptor (Homo sapiens, UniProt Q9Y5X4). Type of assay: functional, cell-based.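 Note: CHO-S cells with Gal4-NCOR and VP16-NR2E3 two-hybrid luciferase reporter.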
Sequence of Photoreceptor-specific nuclear receptor (Q9Y5X4 whole entry, the tested form may be a part): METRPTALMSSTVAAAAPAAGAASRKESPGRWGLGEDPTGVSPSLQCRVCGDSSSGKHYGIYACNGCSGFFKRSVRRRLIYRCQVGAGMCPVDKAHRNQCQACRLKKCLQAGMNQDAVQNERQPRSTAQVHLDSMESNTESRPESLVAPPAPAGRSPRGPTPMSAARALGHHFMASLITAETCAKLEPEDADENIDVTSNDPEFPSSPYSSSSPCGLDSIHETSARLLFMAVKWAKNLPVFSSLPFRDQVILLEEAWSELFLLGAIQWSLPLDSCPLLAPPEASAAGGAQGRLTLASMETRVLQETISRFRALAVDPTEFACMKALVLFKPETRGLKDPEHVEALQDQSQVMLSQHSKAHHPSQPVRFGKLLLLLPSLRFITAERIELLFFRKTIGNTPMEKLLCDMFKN
Assay [10] has as its target T5, Sentrin-specific protease 1 (Homo sapiens, UniProt Q9P0U3).
T5 sequence (Q9P0U3 whole entry): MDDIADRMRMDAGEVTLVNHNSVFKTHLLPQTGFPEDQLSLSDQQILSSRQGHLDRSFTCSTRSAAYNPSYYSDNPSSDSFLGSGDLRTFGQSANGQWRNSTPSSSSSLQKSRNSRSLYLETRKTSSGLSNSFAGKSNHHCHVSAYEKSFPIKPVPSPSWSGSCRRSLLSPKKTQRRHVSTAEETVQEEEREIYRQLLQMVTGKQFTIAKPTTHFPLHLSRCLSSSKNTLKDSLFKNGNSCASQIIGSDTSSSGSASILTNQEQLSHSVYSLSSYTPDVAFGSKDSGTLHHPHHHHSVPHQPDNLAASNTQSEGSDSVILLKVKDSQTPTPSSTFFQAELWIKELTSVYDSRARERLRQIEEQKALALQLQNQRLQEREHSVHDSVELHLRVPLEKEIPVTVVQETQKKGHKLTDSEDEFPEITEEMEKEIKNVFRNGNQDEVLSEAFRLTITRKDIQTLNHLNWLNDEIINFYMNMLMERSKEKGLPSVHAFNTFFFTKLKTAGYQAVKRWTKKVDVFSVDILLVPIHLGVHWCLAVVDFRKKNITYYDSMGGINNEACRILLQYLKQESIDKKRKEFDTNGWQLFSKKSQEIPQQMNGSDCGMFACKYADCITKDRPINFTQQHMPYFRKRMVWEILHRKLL
The experiment in a line: potency of human SENP1 inhibitors, dose response, biochemical, kinetic FRET (AID 651697). Type of assay: functional. As to conditions: read-out: IC50_Mean.

The target in assay [11] is T5, Sentrin-specific protease 1. In words: Dose response confirmation of small molecule inhibitors of the catalytic domain of the SUMO protease, SENP1 in a FRET assay. Type of assay: functional. As to conditions: read-out: IC50_Mean.
For a further assay, the target named is Steroidogenic factor 1 (Homo sapiens, UniProt Q13285). The experiment in a line: Counterscreen for inverse agonists of the liver receptor homolog-1 (LRH-1; NR5A2): Luminescence-based cell-based high throughput dose response assay to identify inverse agonists of the Steroidogenic Factor 1 Nuclear Receptor (SF1; NR5A1). Format: functional.
Sequence of Steroidogenic factor 1 (Q13285 whole entry): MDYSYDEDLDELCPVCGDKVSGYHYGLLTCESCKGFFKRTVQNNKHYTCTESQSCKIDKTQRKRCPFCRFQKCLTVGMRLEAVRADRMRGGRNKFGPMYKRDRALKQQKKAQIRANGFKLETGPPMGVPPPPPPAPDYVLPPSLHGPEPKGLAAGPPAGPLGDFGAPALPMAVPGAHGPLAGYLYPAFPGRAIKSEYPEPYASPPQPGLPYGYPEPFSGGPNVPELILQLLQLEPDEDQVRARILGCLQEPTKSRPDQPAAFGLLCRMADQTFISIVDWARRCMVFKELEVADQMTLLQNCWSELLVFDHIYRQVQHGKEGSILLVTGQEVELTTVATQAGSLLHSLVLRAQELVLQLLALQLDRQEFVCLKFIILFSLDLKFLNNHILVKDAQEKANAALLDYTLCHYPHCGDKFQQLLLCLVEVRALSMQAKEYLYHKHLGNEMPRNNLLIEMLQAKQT
The target in assay [12] is Nuclear receptor subfamily 5 group A member 2 (Homo sapiens, UniProt O00482). Type of assay: functional, cell-based.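 Note: HEK293T cells transfected with LRH-1 and a StAR promoter luciferase reporter; potency for inhibitors that lower LRH-1 driven reporter light.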
Sequence of Nuclear receptor subfamily 5 group A member 2 (O00482 whole entry): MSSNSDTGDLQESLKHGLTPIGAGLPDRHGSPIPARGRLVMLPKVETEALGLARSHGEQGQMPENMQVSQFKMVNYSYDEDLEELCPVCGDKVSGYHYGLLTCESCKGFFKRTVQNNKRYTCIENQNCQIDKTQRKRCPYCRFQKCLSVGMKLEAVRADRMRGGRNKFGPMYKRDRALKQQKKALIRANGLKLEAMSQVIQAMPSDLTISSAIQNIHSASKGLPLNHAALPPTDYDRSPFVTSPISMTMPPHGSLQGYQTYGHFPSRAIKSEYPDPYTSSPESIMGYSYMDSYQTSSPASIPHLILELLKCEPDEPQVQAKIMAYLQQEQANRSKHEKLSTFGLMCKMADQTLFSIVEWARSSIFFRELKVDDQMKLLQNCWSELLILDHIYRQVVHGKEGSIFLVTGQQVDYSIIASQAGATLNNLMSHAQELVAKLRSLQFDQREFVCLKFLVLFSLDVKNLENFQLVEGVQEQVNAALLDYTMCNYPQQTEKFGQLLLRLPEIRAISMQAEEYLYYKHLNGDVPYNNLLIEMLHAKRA
Assay [13] can be described thus: StAR promoter reporter inhibition counter-screen, dose response, counter-screen for LRH-1 inverse agonist project, cell-based, luminescence, luciferase reporter (AID 651969). Type of assay: functional.
The target in assay [14] is T6, DNA repair and recombination protein RAD54-like (Homo sapiens, UniProt Q92698).
T6 sequence (Q92698 whole entry): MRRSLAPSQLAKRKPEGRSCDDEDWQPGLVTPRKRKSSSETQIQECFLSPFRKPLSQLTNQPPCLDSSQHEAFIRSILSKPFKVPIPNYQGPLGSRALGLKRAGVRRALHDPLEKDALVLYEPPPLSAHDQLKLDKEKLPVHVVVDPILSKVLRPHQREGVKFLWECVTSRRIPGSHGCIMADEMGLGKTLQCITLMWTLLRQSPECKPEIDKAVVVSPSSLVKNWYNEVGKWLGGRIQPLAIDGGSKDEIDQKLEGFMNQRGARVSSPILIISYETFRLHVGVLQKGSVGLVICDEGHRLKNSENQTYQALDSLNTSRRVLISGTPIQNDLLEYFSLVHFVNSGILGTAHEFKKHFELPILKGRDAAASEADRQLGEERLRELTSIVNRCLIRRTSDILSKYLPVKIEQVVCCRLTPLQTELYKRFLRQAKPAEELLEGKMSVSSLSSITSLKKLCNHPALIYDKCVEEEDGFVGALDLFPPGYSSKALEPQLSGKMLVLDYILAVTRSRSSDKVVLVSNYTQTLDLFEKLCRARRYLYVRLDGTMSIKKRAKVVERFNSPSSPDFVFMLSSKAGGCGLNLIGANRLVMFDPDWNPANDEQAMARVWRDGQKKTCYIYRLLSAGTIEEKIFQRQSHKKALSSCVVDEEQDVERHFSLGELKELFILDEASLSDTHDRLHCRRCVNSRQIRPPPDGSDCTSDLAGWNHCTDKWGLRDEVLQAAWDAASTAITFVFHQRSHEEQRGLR
The experiment in a line: inhibitors of human RAD54 branch migration, confirmation, biochemical, fluorescence, cherry-picked samples, dose series (AID 651657). Type of assay: functional.

Assay [15] can be described thus: DNA binding of candidate compounds, dose response, artefact control for RAD54 inhibitor project, biochemical, fluorescence polarization, cherry-pick (AID 651673). Type of assay: functional.
In a further assay the target is Paired box protein Pax-8 (Homo sapiens, UniProt Q06710). The experiment in a line: inhibitors of PAX8-driven TPO luciferase reporter, dose response, RMG-I cells, cherry-pick (AID 687027).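 Note: luciferase reporter driven by Pax8 target thyroperoxidase promoter measured by SteadyGlo luminescence.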 Format: functional, cell-based. (In general: Reporter assays use an easily measured gene product as a stand-in for the process of interest.)
Sequence of Paired box protein Pax-8 (Q06710 whole entry): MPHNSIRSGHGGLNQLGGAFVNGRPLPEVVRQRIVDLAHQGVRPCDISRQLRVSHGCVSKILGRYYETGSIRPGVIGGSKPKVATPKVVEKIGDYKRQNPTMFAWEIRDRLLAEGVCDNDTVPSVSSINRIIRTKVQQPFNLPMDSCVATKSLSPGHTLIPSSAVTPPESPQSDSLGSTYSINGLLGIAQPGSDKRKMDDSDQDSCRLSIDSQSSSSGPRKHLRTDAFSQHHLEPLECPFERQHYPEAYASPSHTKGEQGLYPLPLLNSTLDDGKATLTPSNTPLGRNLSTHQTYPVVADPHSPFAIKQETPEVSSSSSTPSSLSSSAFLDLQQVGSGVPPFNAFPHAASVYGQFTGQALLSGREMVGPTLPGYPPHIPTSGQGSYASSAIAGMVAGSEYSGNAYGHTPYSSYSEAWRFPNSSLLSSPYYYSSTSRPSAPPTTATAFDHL
A short description of assay [16]: NIH/3T3 fibroblast cytotoxicity, dose response, cytotoxicity control for T. cruzi growth inhibitor project, cell-based, cherry-pick samples, set 2 (AID 651817). As to conditions: NIH3T3. Type of assay: functional.

T1 sequence (P65502 whole entry): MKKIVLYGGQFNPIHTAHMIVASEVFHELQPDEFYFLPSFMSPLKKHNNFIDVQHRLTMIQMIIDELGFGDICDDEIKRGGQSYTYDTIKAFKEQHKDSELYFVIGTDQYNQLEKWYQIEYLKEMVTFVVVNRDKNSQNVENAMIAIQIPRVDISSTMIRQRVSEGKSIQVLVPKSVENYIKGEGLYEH
Sequence of Arf-GAP with SH3 domain, ANK repeat and PH domain-containing protein 1 (Q9ULH1 whole entry, the tested form may be a part): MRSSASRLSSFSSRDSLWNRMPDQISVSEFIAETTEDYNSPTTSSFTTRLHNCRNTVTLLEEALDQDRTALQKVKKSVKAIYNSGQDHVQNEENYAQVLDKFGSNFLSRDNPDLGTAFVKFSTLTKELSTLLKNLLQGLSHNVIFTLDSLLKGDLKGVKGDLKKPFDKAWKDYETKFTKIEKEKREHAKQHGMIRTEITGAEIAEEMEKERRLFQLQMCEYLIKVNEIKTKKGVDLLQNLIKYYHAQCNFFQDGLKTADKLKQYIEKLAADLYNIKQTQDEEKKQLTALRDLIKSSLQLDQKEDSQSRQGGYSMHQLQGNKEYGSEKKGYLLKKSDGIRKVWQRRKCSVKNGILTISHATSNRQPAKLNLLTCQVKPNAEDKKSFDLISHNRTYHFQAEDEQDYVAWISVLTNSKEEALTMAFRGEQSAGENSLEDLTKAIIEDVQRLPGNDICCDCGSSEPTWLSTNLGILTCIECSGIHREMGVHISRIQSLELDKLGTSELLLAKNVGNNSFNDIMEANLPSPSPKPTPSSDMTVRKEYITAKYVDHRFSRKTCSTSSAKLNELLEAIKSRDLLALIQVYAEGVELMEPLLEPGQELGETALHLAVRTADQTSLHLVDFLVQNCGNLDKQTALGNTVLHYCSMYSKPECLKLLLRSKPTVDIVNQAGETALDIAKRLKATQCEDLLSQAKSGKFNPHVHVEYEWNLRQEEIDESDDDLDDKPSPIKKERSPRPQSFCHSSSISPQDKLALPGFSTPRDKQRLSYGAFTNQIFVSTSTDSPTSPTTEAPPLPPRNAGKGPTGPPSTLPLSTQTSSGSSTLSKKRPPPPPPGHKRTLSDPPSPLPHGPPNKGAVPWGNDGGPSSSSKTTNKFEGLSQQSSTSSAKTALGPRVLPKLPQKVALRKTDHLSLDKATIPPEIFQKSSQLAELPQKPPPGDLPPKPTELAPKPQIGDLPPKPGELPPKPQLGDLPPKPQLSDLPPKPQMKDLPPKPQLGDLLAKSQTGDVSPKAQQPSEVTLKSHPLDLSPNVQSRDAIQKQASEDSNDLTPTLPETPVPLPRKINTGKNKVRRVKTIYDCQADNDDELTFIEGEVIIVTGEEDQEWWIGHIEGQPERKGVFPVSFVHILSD

`CC(C)(C)n1nc2c(c1NC(=O)c1ccc(S(=O)(=O)N3CCCC3)cc1)CSC2`: the IC50 in assay [1] was 12.7 µM (active); in [2], 36.1 µM (active).

`Cc1ccccc1Nc1cc(C)c2c(O)cccc2n1`: the IC50 is 80 µM (inactive) in assay [3], 6.78 µM (active) in assay [4] and 22.7 µM (inactive) in assay [6]. For the same compound, the AC50 in assay [5] is 6.73 µM (active).

As to `O=C(CSc1nnnn1-c1ccccc1)Nc1nsc(-c2ccc(Cl)cc2)n1`, the IC50 in assay [7] was 37.6 µM (inactive); in assay [8], 23.6 µM (inactive); at Estrogen receptor, 20.8 µM (active); in assay [9] it was 0.185 µM (active).

For `CCN(CC(=O)Nc1ccc(NC(C)=O)cc1)C(=O)CSc1ncnc2sc(C)c(C)c12`, the IC50 in assay [10] is 5.42 µM (active); in assay [11] it was 4.9 µM (active).

On to `COc1ccc(CCNC(=O)COC(=O)c2cccn2C)cc1`, for which the IC50 was 7.32 µM (active) on Steroidogenic factor 1, 35.9 µM (inactive) in [12] and 35.9 µM (inactive) in [13].

For `CCN(CC)CCNc1cccc2sc3ccccc3c(=O)c12`, the AC50 in [14] is 6.59 µM (active); in [15], 51.4 µM (active). Also, the IC50 in [11] was 46.3 µM (inactive).

On to `Cc1ccc(S(=O)(=O)Nc2ccc3c(c2)CC(=O)N([C@H](C)CO)C[C@H](C)[C@@H](CN(C)Cc2ccc(Cl)c(Cl)c2)O3)cc1`, for which the AC50 at Paired box protein Pax-8 was 13.3 µM (active); in assay [16] it was 13 µM (active).

These data come from ChEMBL document CHEMBL1201862, “PubChem BioAssay data set” (2004).
